Source: US10316050B2, “PT (IV) complexes containing 4,4′-disubstituted-2,2′-bipyridyl and their use in cancer therapy” (THE BOARD OF REGENTS OF THE NEVADA SYSTEM OF HIGHER …, priority 2014, dated 2019)
Like-named read-outs stand apart in the source and are kept apart here.

Assays:
Assay type in all cases: cell-based, human
[1] = system: A549 lung cancer cells; experiment: MTS cell viability assay, A549; settings: for EC50: read-out: EC50 (effective concentration that resulted in 50% cell viability)
Procedure: (§1) Human breast (HCC38, MCF-7, MDA-MB-231, SK-BR-3, T-47D, and ZR-75-1), lung (A549 and H520), and prostate (DU145 and PC-3) cancer cell lines were obtained from American Culture Type Collection (ATCC). The HCC38, MCF-7, MDA-MB-231, SK-BR-3, T-47D, ZR-75-1, and A549 cells were grown in MEM supplemented with 10% FBS, 25 mM HEPES buffer (pH 7.4), penicillin (100 U/mL), and streptomycin (100 μg/mL). The H520, DU145, and PC-3 cell lines were grown in RPMI-1640 supplemented with 10% FBS, 25 mM HEPES buffer (pH 7.4), penicillin (100 U/mL), and streptomycin (100 μg/mL). All cell lines were maintained at 37° C. in a humidified, 5% CO2 atmosphere.
(§2) Cells were cultured at a density of 2-3.5×10^3 cells per well in flat bottomed 96-well plates in 100 μL of complete growth medium and incubated for 2 days to reach ˜50% confluence. The cells were then treated with solvent or the appropriate drugs (CDDP stock was dissolved in 0.15 M NaCl, carboplatin stock was dissolved in 5% glucose, synthesized Pt(IV) complexes were dissolved in DMSO) for 1 hour, washed three times with 100 μL PBS, and incubated in 100 μL of fresh medium. After 2 days, the medium was replaced with 120 μL of medium containing CellTiter 96® Aqueous One Solution Reagent (MTS reagent) (Promega, Madison, Wis.). The cells were incubated at 37° C. for 4 hours and the cell viability was determined by measuring the absorbance at 490 nm using a Tecan Infinite M1000 microplate reader. The 48 h treatment was done in a similar manner, except the cells were not washed after treatment and the MTS reagent was immediately added. Viability of treated groups was calculated as a percent of control and graphed with GraphPad Prism.
(§3) The anti-proliferative activities of Pt(IV) complexes were determined in two lung (A549 and H520), two prostate (DU145 and PC-3), and six breast (HCC38, MCF-7, MDA-MB-231, SK-BR-3, T-47D, and ZR-75-1) cancer cell lines. The cells were treated with increasing concentrations of cisplatin (CDDP), carboplatin, or the Pt(IV) complexes for 1 or 48 hours, and the viability was measured using an MTS colorimetric cell proliferation assay. Graphs of the results are shown for DU145 (FIG. 8A), PC-3 (FIG. 8B), SK-BR-3 (FIG. 8C), ZR-75-1 (FIG. 8D), A549 (FIG. 8E), and MCF-7 (FIG. 8F).

[2] = system: H520 lung cancer cells; experiment: MTS cell viability assay, H520; settings: read-out: EC50 (effective concentration that resulted in 50% cell viability)
Procedure: as §1, §2, §3

[3] = system: MDA-MB-231 breast cancer cells; experiment: MTS cell viability assay, MDA-MB-231; settings: read-out: EC50 (effective concentration that resulted in 50% cell viability)
Procedure: as §1, §2, §3

[4] = system: DU145 prostate cancer cells; settings: for effect on cell viability (in words): DU145, 1 hour treatment (FIG. 8A, top), up to 1 mM carboplatin, 100 μM Pt(IV)-1C, 50 μM Pt(IV)-2C; for EC50: read-out: EC50 (effective concentration that resulted in 50% cell viability); for anti-proliferative activity compared to cisplatin (in words): DU145, one and 48 hours treatment (FIG. 8H)
Procedure: as §1, §2, §3
(§4) The anti-proliferative activities of certain Pt(II) complexes were determined in DU145, PC-3, and SK-BR-3 cells. The cells were treated with increasing concentrations of cisplatin (CDDP) or the Pt(II) complexes for 1 or 48 hours, and the viability was measured using an MTS colorimetric cell proliferation assay.

[5] = system: HCC38 breast cancer cells; experiment: MTS cell viability assay, HCC38; settings: read-out: EC50 (effective concentration that resulted in 50% cell viability)
Procedure: as §1, §2, §3

[6] = system: PC-3 prostate cancer cells; experiment: MTS cell viability assay, PC-3; settings: for EC50: read-out: EC50 (effective concentration that resulted in 50% cell viability); for anti-proliferative activity compared to cisplatin (in words): PC-3, one and 48 hours treatment (FIG. 8I)
Procedure: as §1, §2, §3, §4

[7] = system: SK-BR-3 breast cancer cells; experiment: MTS cell viability assay, SK-BR-3; settings: for EC50: read-out: EC50 (effective concentration that resulted in 50% cell viability); for anti-proliferative activity compared to cisplatin (in words): SK-BR-3, one and 48 hours treatment (FIG. 8G)
Procedure: as §1, §2, §3, §4

[8] = system: T-47D breast cancer cells; experiment: MTS cell viability assay, T-47D
Procedure: as §1, §2, §3

[9] = system: MCF-7 breast cancer cells; experiment: MTS cell viability assay, MCF-7; settings: for EC50: read-out: EC50 (effective concentration that resulted in 50% cell viability)
Procedure: as §1, §2, §3

[10] = system: ZR-75-1 breast cancer cells; experiment: MTS cell viability assay, ZR-75-1; settings: read-out: EC50 (effective concentration that resulted in 50% cell viability)
Procedure: as §1, §2, §3

With CC(=O)[O][Pt]([Cl])([Cl])[O]C(C)=O.CCCOc1ccnc(-c2cc(OCCC)ccn2)c1 [Pt(IV)-3C, [Pt(IV)Cl2(OAc)2(4,4′-dipropoxy-2,2′-bipyridine)]] the “effect on cell viability (in words)” value ([1]; A549, 1 hour treatment, at the concentrations tested (FIG. 8E)) was “did not have any effect”, the EC50 ([1]; A549, 1 h treatment, Table 3) was greater than 50 µM and the EC50 ([1]; A549, 48 h, Table 5) was 23 ± 1 µM. It also gave an EC50 ([2]; H520, 1 h treatment, Table 3) of 80 ± 20 µM, an EC50 ([2]; H520, 48 h, Table 5) of 8 ± 6 µM and an EC50 ([3]; MDA-MB-231, 1 h treatment, Table 3) of 34 ± 7 µM. The EC50 ([3]; MDA-MB-231, 48 h, Table 5) was 6.1 ± 0.4 µM, the “effect on cell viability (in words)” value [4] was “least effective among the five active compounds” and the EC50 ([4]; DU145, 1 h treatment, Table 3) was 24 ± 7 µM. For the same compound, the EC50 ([4]; DU145, 48 h, Table 5) was 1 ± 1 µM, the EC50 ([5]; HCC38, 1 h treatment, Table 3) was 26 ± 6 µM and the EC50 ([5]; HCC38, 48 h, Table 5) was 8 ± 1 µM. The EC50 ([6]; PC-3, 1 h treatment, Table 3) was 23 ± 0.3 µM, the EC50 ([6]; PC-3, 48 h, Table 5) was 1.1 ± 0.4 µM and the EC50 ([7]; SK-BR-3, 1 h treatment, Table 3) was 19 ± 2 µM. The EC50 ([7]; SK-BR-3, 48 h, Table 5) was 0.9 ± 0.1 µM, the EC50 ([8]; 1 h treatment, Table 3, read-out: EC50 (effective concentration that resulted in 50% cell viability)) was 24 ± 3 µM and the EC50 ([8]; 48 h, Table 5, read-out: EC50 (effective concentration that resulted in 50% cell viability)) was 0.59 ± 0.01 µM. The “effect on cell viability (in words)” value ([9]; MCF-7, 1 hour treatment, at the concentrations tested (FIG. 8F)) was “did not have any effect”, the EC50 ([9]; MCF-7, 1 h treatment, Table 3) was greater than 100 µM and the EC50 ([9]; MCF-7, 48 h, Table 5) was 29 ± 2 µM. It also gave an EC50 ([10]; ZR-75-1, 1 h treatment, Table 3) of 24 ± 3 µM and an EC50 ([10]; ZR-75-1, 48 h, Table 5) of 1.21 ± 0.04 µM.

CCCCCCOc1ccnc(-c2cc(OCCCCCC)ccn2)c1.[Cl][Pt][Cl] [Pt(II)-6C] gave an EC50 ([1]; A549, 1 h treatment, Table 2) of 66 ± 16 µM, an EC50 ([1]; A549, 48 h treatment, Table 4) of 19.1 ± 0.8 µM and an EC50 ([2]; H520, 1 h treatment, Table 2) greater than 50 µM. For the same compound, the EC50 ([2]; H520, 48 h treatment, Table 4) was 18 ± 1 µM, the EC50 ([3]; MDA-MB-231, 1 h treatment, Table 2) was 6 ± 3 µM and the EC50 ([3]; MDA-MB-231, 48 h treatment, Table 4) was 4 ± 1 µM. For the same compound, the EC50 ([4]; DU145, 1 h treatment, Table 2) was 2.1 ± 0.1 µM, the EC50 ([4]; DU145, 48 h treatment, Table 4) was 1.9 ± 0.1 µM and the EC50 ([5]; HCC38, 1 h treatment, Table 2) was 16 ± 5 µM. The EC50 ([5]; HCC38, 48 h treatment, Table 4) was 14 ± 4 µM, the EC50 ([6]; PC-3, 1 h treatment, Table 2) was 2.24 ± 0.03 µM and the EC50 ([6]; PC-3, 48 h treatment, Table 4) was 2.7 ± 0.1 µM. The EC50 ([7]; SK-BR-3, 1 h treatment, Table 2) was 1.84 ± 0.03 µM, the EC50 ([7]; SK-BR-3, 48 h treatment, Table 4) was 1.8 µM and the EC50 ([8]; 1 h treatment, Table 2, read-out: EC50 (effective concentration that resulted in 50% cell viability)) was 3.2 ± 0.8 µM. It also gave an EC50 ([8]; 48 h treatment, Table 4, read-out: EC50 (effective concentration that resulted in 50% cell viability)) of 2.1 ± 0.2 µM, an EC50 ([9]; MCF-7, 1 h treatment, Table 2) of 80 ± 30 µM and an EC50 ([9]; MCF-7, 48 h treatment, Table 4) of 12 ± 4 µM. It also gave an EC50 ([10]; ZR-75-1, 1 h treatment, Table 2) of 7 ± 2 µM and an EC50 ([10]; ZR-75-1, 48 h treatment, Table 4) of 6.4 ± 0.4 µM.

In the case of CCOC(=O)c1ccnc(-c2cc(C(=O)OCC)ccn2)c1.[Cl][Pt][Cl] [Pt(II)-COOC2], the “anti-proliferative activity compared to cisplatin (in words)” value [4] is reported as “generally more effective than cisplatin”, the “anti-proliferative activity compared to cisplatin (in words)” value [6] is reported as “generally more effective than cisplatin” and the “anti-proliferative activity compared to cisplatin (in words)” value [7] is reported as “generally more effective than cisplatin”.

With CCOCCOCCOC(=O)c1ccnc(-c2cc(C(=O)OCCOCCOCC)ccn2)c1.[Cl][Pt][Cl] [Pt(II)-COO(C2O)2C2] the “anti-proliferative activity compared to cisplatin (in words)” value [4] was “not as effective as cisplatin”, the “anti-proliferative activity compared to cisplatin (in words)” value [6] was “not as effective as cisplatin” and the “reduction in cell viability, one hour versus 48 hours treatment” value ([7]; SK-BR-3 (FIG. 8G)) was “greater reduction in cell viability than when they were treated for 48 hours”. For the same compound, the “anti-proliferative activity compared to cisplatin (in words)” value [7] was “not as effective as cisplatin”.

With CCCCCCCCOC(=O)c1ccnc(-c2cc(C(=O)OCCCCCCCC)ccn2)c1.[Cl][Pt][Cl] [Pt(II)-COOC8] the “anti-proliferative activity compared to cisplatin (in words)” value [4] was “generally more effective than cisplatin”, the “anti-proliferative activity compared to cisplatin (in words)” value [6] was “generally more effective than cisplatin” and the “anti-proliferative activity compared to cisplatin (in words)” value [7] was “generally more effective than cisplatin”.

In the case of COC(=O)c1ccnc(-c2cc(C(=O)OC)ccn2)c1.[Cl][Pt][Cl] [Pt(II)-COOC1], the “anti-proliferative activity compared to cisplatin (in words)” value [4] is reported as “generally more effective than cisplatin”, the “anti-proliferative activity compared to cisplatin (in words)” value [6] is reported as “generally more effective than cisplatin” and the “anti-proliferative activity compared to cisplatin (in words)” value [7] is reported as “generally more effective than cisplatin”.

N.N.O=C([O-])C1(C(=O)[O-])CCC1.[Pt+2] [Carboplatin, carboplatin, reference compound] was tested, and the EC50 ([1]; A549, 1 h treatment, Table 2) was greater than 1000 µM, the EC50 ([1]; A549, 1 h treatment, Table 3) was greater than 1000 µM and the EC50 ([1]; A549, 48 h, Table 5) was 300 ± 30 µM. For the same compound, the EC50 ([1]; A549, 48 h treatment, Table 4) was 300 ± 30 µM, the “effect on cell viability (in words)” value [4] was “no effect” and the EC50 ([4]; DU145, 1 h treatment, Table 2) was greater than 1000 µM. The EC50 ([4]; DU145, 1 h treatment, Table 3) was greater than 1000 µM, the EC50 ([4]; DU145, 48 h, Table 5) was 400 ± 100 µM and the EC50 ([4]; DU145, 48 h treatment, Table 4) was 400 ± 100 µM. The EC50 ([9]; MCF-7, 1 h treatment, Table 2) was greater than 1000 µM, the EC50 ([9]; MCF-7, 1 h treatment, Table 3) was greater than 1000 µM and the EC50 ([9]; MCF-7, 48 h, Table 5) was 800 ± 100 µM. The EC50 ([9]; MCF-7, 48 h treatment, Table 4) was 800 ± 100 µM.
